{
  "source": "patent US6821927B1",
  "about": "(priority 1999, dated 2004)",
  "assay": "log P determination by HPLC (EEC directive 79/831 Annex V. A8)",
  "type": "physicochemical",
  "key": {"[1]": {"settings": "HPLC, gradient method, acetonitrile/0.1% aqueous phosphoric acid"}},
  "data": [
    {"compound": "CON=C(C(=O)N(C)O)c1ccccc1Oc1ncnc(Oc2ccccc2Cl)c1F", "note": "[Example 1]", "values": [
      {"measurement": "logP", "setting": "HPLC", "value": 2.82}
    ]},
    {"compound": "CON=C(C(=O)N(C)O)c1ccccc1Oc1ncnc(Oc2cccc(Cl)c2C)c1F", "note": "[Example 5]", "values": [
      {"measurement": "chromatographic logP", "setting": "[1]", "value": 3.29}
    ]},
    {"compound": "CON=C(C(=O)N(C)O)c1ccccc1Oc1ncnc(Oc2cccc(Cl)c2Cl)c1F", "note": "[Example 7]", "values": [
      {"measurement": "chromatographic logP", "setting": "[1]", "value": 3.22}
    ]},
    {"compound": "CON=C(C(=O)N(C)OC(C)=O)c1ccccc1Oc1ncnc(Oc2ccccc2Cl)c1F", "note": "[Example 3, N-(Acetyloxy)-2-(2-{[6-(2-chlorophenoxy)-5-fluoro-4-pyrimidinyl]oxy}phenyl)-2-(methoxyimino)-N-methylacetamide]", "values": [
      {"measurement": "chromatographic logP", "setting": "HPLC (gradient method)", "value": 3.52}
    ]},
    {"compound": "CON=C(C(=O)N(C)OC)c1ccccc1Oc1ncnc(Oc2ccccc2Cl)c1F", "note": "[Example 9]", "values": [
      {"measurement": "chromatographic logP", "setting": "[1]", "value": 3.5}
    ]},
    {"compound": "CON=C(C(=O)OC)c1ccccc1Oc1ncnc(Oc2ccccc2Cl)c1F", "note": "[Example (VI-1), Methyl 2-{2-[6-(2-chlorophenoxy)-5-fluoro-pyrimidin-4-yloxy]-phenyl}-2-methoxyiminoacetate]", "values": [
      {"measurement": "chromatographic logP", "setting": "HPLC", "value": 3.61}
    ]},
    {"compound": "CON=C(C(=O)N(C)O)c1ccccc1Oc1ncnc(Oc2ccccc2F)c1F", "note": "[Example 4]", "values": [
      {"measurement": "chromatographic logP", "setting": "[1]", "value": 2.66}
    ]},
    {"compound": "CON=C(C(=O)NO)c1ccccc1Oc1ncnc(Oc2ccccc2Cl)c1F", "note": "[Example 2, 2-(2-{[6-(2-Chlorophenoxy)-5-fluoro-4-pyrimidinyl]oxy}phenyl)-N-hydroxy-2-(methoxyimino)-acetamide]", "values": [
      {"measurement": "chromatographic logP", "setting": "HPLC", "value": 2.56}
    ]},
    {"compound": "CON=C(C(=O)N(C)O)c1ccccc1Oc1ncnc(Oc2ccccc2C#N)c1F", "note": "[Example 8]", "values": [
      {"measurement": "chromatographic logP", "setting": "[1]", "value": 2.43}
    ]},
    {"compound": "CON=C(C(=O)N(C)O)c1ccccc1Oc1ncnc(Oc2cc(Cl)ccc2Cl)c1F", "note": "[Example 6]", "values": [
      {"measurement": "chromatographic logP", "setting": "[1]", "value": 3.28}
    ]}
  ]
}
